{
  "source": "patent US20250190808A1",
  "about": "“DEVICE AND METHOD FOR IM[…] TR[…] NETWORK FOR T[…] SEQUENCE, AND TRAINING DEVICE AND METHOD USING SAME” (LG MANAGEMENT DEVELOPMENT INSTITUTE CO., LTD., priority 2022, published 2025)",
  "origin": "cited, not measured here",
  "key": {"MHC TYPE A*0101": {"system": "MHC TYPE A*0101", "conditions": "read-out: MHC BINDING (IC50)"}, "MHC TYPE B*0101": {"system": "MHC TYPE B*0101", "conditions": "read-out: MHC BINDING (IC50)"}, "MHC TYPE A*0201": {"molecular_target": "MHC TYPE A*0201 (Homo sapiens, UniProt P04439, D140Y/D185E/D98H/E176V/E277Q/G131W/G231S/I119V/I121R/I166T/I218V/L300P/L318F/N151K/N90K/P208A/P217A/Q86G/Q94H/R138H/R169H/T345S)", "conditions": "read-out: MHC BINDING (IC50)"}, "MHC TYPE A*0204": {"system": "MHC TYPE A*0204", "conditions": "read-out: MHC BINDING (IC50)"}},
  "note": "Where two headings read alike, the source gives them in different places.",
  "data": [
    {"sequence": "GQIVTMFEA", "values": [
      {"measurement": "IC50", "setting": "MHC TYPE A*0101", "result": "< 0.1", "unit": "µM"},
      {"measurement": "ACTIVATION OF T-CELL", "setting": "T-cell; MHC type A*0101", "result": "Negative"}
    ]},
    {"sequence": "MGQIVTMFE", "values": [
      {"measurement": "IC50", "setting": "MHC TYPE B*0101", "result": "> 20", "unit": "µM"},
      {"measurement": "IC50", "setting": "MHC TYPE A*0201", "result": 0.021, "unit": "µM"},
      {"measurement": "ACTIVATION OF T-CELL", "setting": "T-cell; MHC type A*0201", "result": "Positive"}
    ]},
    {"sequence": "MFEALPHII", "values": [
      {"measurement": "IC50", "setting": "MHC TYPE A*0204", "result": 12, "unit": "µM"}
    ]}
  ]
}
